Source: ChEMBL document CHEMBL3351350, “Inhibition of C-terminal truncated PPM1D enhances the effect of doxorubicin on cell viability in human colorectal carcinoma cell line” (2014)
The source made the active and inactive calls. The rule behind the calls is not given here.

Assays:
[1] = Cytotoxicity against human HCT116 cells assessed as cell viability at 40 uM after 48 hrs by MTS assay; type: functional; conditions: HCT-116, 48 h, read-out: Activity
[2] = Cytotoxicity against human HCT116 cells assessed as cell viability at 40 uM after 48 hrs by MTS assay in presence of doxorubicin; type: functional; conditions: HCT-116, 48 h, read-out: Activity
[3] = biological target: T1, Protein phosphatase 1D (Homo sapiens) (UniProt O15297); assay: Inhibition of C-terminal truncated PPM1D in human HCT116 cells assessed as increase in Ser15 phosphorylated p53 level at 40 uM after 24 to 48 hrs by western blotting in presence of doxorubicin; type: cell-based; conditions: HCT-116
T1 sequence (whole entry): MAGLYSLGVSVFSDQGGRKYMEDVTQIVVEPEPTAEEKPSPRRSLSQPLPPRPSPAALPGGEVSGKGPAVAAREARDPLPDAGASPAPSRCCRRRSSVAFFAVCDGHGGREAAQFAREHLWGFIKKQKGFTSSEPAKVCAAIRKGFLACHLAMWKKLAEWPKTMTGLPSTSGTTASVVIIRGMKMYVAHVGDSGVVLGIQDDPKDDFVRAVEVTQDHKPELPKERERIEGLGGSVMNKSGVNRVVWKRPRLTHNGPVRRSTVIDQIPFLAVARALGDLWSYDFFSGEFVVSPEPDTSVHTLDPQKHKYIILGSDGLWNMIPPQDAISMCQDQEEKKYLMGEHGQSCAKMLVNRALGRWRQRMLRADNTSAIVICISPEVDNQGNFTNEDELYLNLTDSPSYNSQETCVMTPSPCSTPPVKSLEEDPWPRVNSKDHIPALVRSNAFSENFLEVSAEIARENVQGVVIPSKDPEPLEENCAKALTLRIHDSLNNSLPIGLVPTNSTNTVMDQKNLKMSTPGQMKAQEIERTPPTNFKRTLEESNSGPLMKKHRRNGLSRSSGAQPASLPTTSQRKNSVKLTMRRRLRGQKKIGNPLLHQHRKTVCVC

[4] = biological target: T1, Protein phosphatase 1D (Homo sapiens); assay: Inhibition of C-terminal truncated PPM1D in human HCT116 cells assessed as increase in p21 level at 40 uM after 24 to 48 hrs by western blotting in presence of doxorubicin; type: cell-based; conditions: HCT-116
[5] = test system: HCT-116; assay: Increase in C-terminal truncated PPM1D level in human HCT116 cells at 40 uM after 24 to 48 hrs by western blotting in presence of doxorubicin; type: functional, cell-based
[6] = test system: HCT-116; assay: Cytotoxicity against human HCT116 cells assessed as inhibition of cell viability after 48 hrs by MTS assay; type: functional, cell-based
[7] = test system: A549; assay: Cytotoxicity against human A549 cells assessed as inhibition of cell viability after 48 hrs by MTS assay; type: functional, cell-based
[8] = Cytotoxicity against human HCT116 cells assessed as cell viability at 2 uM after 48 hrs by MTS assay; type: functional; conditions: HCT-116, 48 h, read-out: Activity
[9] = test system: A549; assay: Cytotoxicity against human A549 cells assessed as cell viability at 2 uM after 48 hrs by MTS assay; type: functional; conditions: A549, 48 h, read-out: Activity
[10] = biological target: T1, Protein phosphatase 1D (Homo sapiens); assay: Inhibition of C-terminal truncated PPM1D in human HCT116 cells assessed as increase in Ser15 phosphorylated p53 level at 2 uM after 24 to 48 hrs by western blotting; type: cell-based; conditions: HCT-116
[11] = biological target: T1, Protein phosphatase 1D (Homo sapiens); assay: Inhibition of C-terminal truncated PPM1D in human HCT116 cells assessed as increase in p21 level at 2 uM after 24 to 48 hrs by western blotting; type: cell-based; conditions: HCT-116

Structure (SMILES)	viability at 40 µM [1]	viability at 40 µM [2]	inhibition [3]	inhibition [4]	Activity [5]	inhibition [6]	inhibition [7]	viability at 2 µM [8]	viability at 2 µM [9]	inhibition [10]	inhibition [11]
CC[Si](CC)(CC)O[C@@H]1C[C@H](C)C[C@@H]2[C@@H]1C[C@H](O[Si](C)(C)C(C)(C)C)[C@@H]1[C@](C)(CO)C[C@H](O)C[C@@]21C	94.2%	26.3%	Active	Active	Active						
COc1cccc2c1C(=O)c1c(O)c3c(c(O)c1C2=O)C[C@@](O)(C(=O)CO)C[C@@H]3O[C@H]1C[C@H](N)[C@H](O)[C@H](C)O1 [DOXORUBICIN]						Dose-dependent effect	Dose-dependent effect	40.7%	5%	Active	Active
